{
  "source": "paper PMC5131364",
  "about": "“Pharmacologic modulation of RORγt translates to efficacy in preclinical and translational models of psoriasis and inflammatory arthritis” (Scientific Reports, 2016)",
  "format_in_all_cases": "cell-based",
  "key": {"[1]": {"tested_on": "human γδ+ T cells in PBMCs", "assay": "Human γδ+ T cell in vitro activation", "conditions": "168 h, IL-1β, IL-23 and IPP, 7 days, average, read-out: inhibition of the IL-17A+ γδ+ T cell population", "source_text": "The following antibodies (anti-mouse or anti-human) were purchased from BD Biosciences (San Diego, CA) or eBioscience (San Diego, CA): anti-CD3-FITC (mouse 17A2 and human SK7), anti-CD4-allophycocyanin (APC), anti-CD4-PerCp, anti-CD4-FITC, anti-CD4-PE (mouse GK1.5 and human SK3), anti-CD44-PerCp (mouse IM7), anti-γδ TCR-FITC, anti-γδ TCR-PE (mouse GL3 and human B1), anti-CD62L-FITC (mouse MEL-14 and human SK11), anti-CD45RO-APC (human UCHL1), anti-CCR6-PE (human 11A9), anti-CD45-PerCp (mouse 30-F11). Human or mouse anti-IFNγ (mouse XMG1.2 and human 4S.B3), anti-TNFα (mouse MP6-XT22 and human MAB11), anti-IL-17A (mouse eBio17B7 and human eBio64DEC17), anti-IL-22 (mouse 1H8PWSR and human 22URTI), and anti-Foxp3 (mouse FJK-16s and human 36A/E7), all PE or APC conjugated, were purchased from eBioscience (San Diego, CA). Human and mouse APC conjugated CD1d tetramers pre-loaded with alpha-GalCer and negative controls were obtained from ProImmune. […] Cells were stained with fluorescence-labeled antibodies for surface marker, then fixed/permeabilized (eBioscience) and stained with antibodies for intracellular cytokines. […] The data were acquired on a FACS Calibur (BD Bioscience) and analyzed using FlowJo software (Tree Star, San Carlos, CA).\nHuman γδ^+ T cells were analyzed only through flow cytometry. […]"}, "RORα": {"target": "T1, RORα (Homo sapiens, UniProt P35398)", "T1 construct": "NP_599022, aa 305–556; expressed in transfected cells; host or cells: HEK293T", "T1 sequence (P35398 272-523)": "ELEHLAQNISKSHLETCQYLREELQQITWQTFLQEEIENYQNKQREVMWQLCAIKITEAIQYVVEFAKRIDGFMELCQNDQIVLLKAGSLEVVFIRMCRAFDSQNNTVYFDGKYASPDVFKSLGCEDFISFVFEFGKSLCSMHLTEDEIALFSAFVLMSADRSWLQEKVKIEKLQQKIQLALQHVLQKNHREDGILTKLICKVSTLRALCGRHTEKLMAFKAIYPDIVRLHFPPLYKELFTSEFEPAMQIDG", "assay": "1-hybrid reporter assay in HEK293T cells (GAL4-RORα)", "conditions": "HEK-293T", "procedure": "The reporter assay was performed by transient co-transfection of HEK293T cells with pCMV-BD (Stratagene #211342) containing the GAL4 DNA-binding domain fused with full-length human RORγt (Genbank accession no. NP_001001523, aa 1–497), pFR-Luc reporter and pRL-CMV reporter (Promega #E2261) plus Carrier DNA (Clontech # 630440) using PEI solution (Sigma Aldrich cat# 40872-7) in a 96-well plate. […] Medium was removed and cells were lysed with Passive Lysis Buffer (Promega). Firefly luciferase buffer was then added and firefly luciferase luminescence was read on BMG LUMIstar OPTIMA luminescence plate reader. One second later, renilla luciferase buffer was then added and renilla luciferase luminescence was read to measure cell viability. For RORα and RORβ activity, similar assays were performed except cells were transfected with pCMV-BD-RORα (Genbank accession no. NP_599022, aa 305–556) or pCMV-BD-RORβ (Genbank accession no. NP_008845, aa 201–459)."}, "mouse iNKT cells": {"tested_on": "mouse iNKT cells", "assay": "Mouse NKT cell in vitro activation", "conditions": "IL-1β/IL-23 plus anti-IFNγ, 4 days, 1 μM", "source_text": "The following antibodies (anti-mouse or anti-human) were purchased from BD Biosciences (San Diego, CA) or eBioscience (San Diego, CA): anti-CD3-FITC (mouse 17A2 and human SK7), anti-CD4-allophycocyanin (APC), anti-CD4-PerCp, anti-CD4-FITC, anti-CD4-PE (mouse GK1.5 and human SK3), anti-CD44-PerCp (mouse IM7), anti-γδ TCR-FITC, anti-γδ TCR-PE (mouse GL3 and human B1), anti-CD62L-FITC (mouse MEL-14 and human SK11), anti-CD45RO-APC (human UCHL1), anti-CCR6-PE (human 11A9), anti-CD45-PerCp (mouse 30-F11). […] Cells were stained with fluorescence-labeled antibodies for surface marker, then fixed/permeabilized (eBioscience) and stained with antibodies for intracellular cytokines. […] The data were acquired on a FACS Calibur (BD Bioscience) and analyzed using FlowJo software (Tree Star, San Carlos, CA).\nSingle cell suspension was generated from mouse mesenteric lymph-nodes. […] NKT cells were identified among total live cells using anti-CD3 and mouse conjugated CD1d-tetramer pre-loaded with alpha-GalCer, and cytokine-producing NKT cells were analyzed through intracellular staining. […]"}},
  "data": [
    {"smiles": "COc1nc2ccc([C@@](O)(c3ccc(C)nc3C)c3cnnn3C)cc2c(Cl)c1Cc1ccc(C(F)(F)F)cc1", "note": "[JNJ-54271074]", "values": [
      {"measurement": "inhibition at 1 µM", "setting": "[1]", "value": 56, "unit": "%"},
      {"measurement": "IC50", "setting": "RORα", "value": 4, "unit": "µM"},
      {"measurement": "IL-17A production by mouse iNKT cells", "setting": "mouse iNKT cells", "value": "suppressed"}
    ]}
  ]
}
